Converted amounts (≈) assume the structure as drawn.
Legend:
[1] = test system: XW136; assay: Furfural tolerance in tube cultures; type: cell-based, Escherichia coli; details: strain XW136 (XW120 with adhE::fucO), AM1 medium, 50 g/L xylose, 48 h
Experimental: (§1) Furfural toxicity was measured in tube cultures (13 mm by 100 mm) as previously described for ethanol strains (17, 22). For succinate strains, tubes contained 4 ml of AM1 medium with 50 g/L xylose, 50 mM KHCO3, and 100 mM MOPS as a buffer. Tubes were inoculated with starting cell density of 44 mg/L. Cell mass was measured at 550 nm after incubation for 48 h (37° C.).

[2] = test system: XW129; assay: Batch ethanol fermentation in AM1 medium with furfural; type: cell-based, Escherichia coli; details: 15 mM furfural, AM1 mineral salts medium, 100 g/L xylose
Experimental: (§2) FIGS. 4A-C. Comparison of batch fermentations for the parent LY180 and the plasmid-free, furfural-resistant strain XW129. […] For A (cell mass) and B (ethanol and furfural), fermentations were conducted in mineral salt medium AM1 (100 g/L xylose and 15 mM furfural). Control fermentations without furfural were also included. Fermentations (C) were also conducted using hemicellulose hydrolysate containing 36 g/L total sugar, supplemented with AM1 nutrients and 0.5 mM sodium metabisulfite. Data represent averages of at least 2 experiments with standard deviations.
(§3) Ethanol fermentations with xylose were carried out as previously described (17, 22), with and without furfural. For succinate production from xylose, seed pre-cultures of strains were grown in sealed culture tubes containing AM1 medium (20 g/L xylose, 50 mM KHCO3 and 100 mM MOPS). After incubation for 16 h, pre-inocula were diluted into 500-ml fermentation vessels containing 300 ml AM1 media (100 g/L xylose, 1 mM betaine and 100 mM KHCO3) at an initial density of 6.6 mg dry cell weight. After 24 h growth, these seed cultures were used to provide starting inocula for batch fermentations (AM1 medium, 100 g/L xylose and 100 mM KHCO3). Fermentations were maintained at pH 7.0 by automatic addition of base containing additional CO2 (2.4 M potassium carbonate in 1.2 M potassium hydroxide) as previously described (27). Quantitative analyses of sugars, ethanol, furfural, and succinate were as previously described (17, 27, 38).

[3] = test system: LY180; assay: as above; type: cell-based, Escherichia coli; details: 15 mM furfural, AM1 mineral salts medium, 100 g/L xylose
Experimental: as §2, §3

[4] = test system: XW055; assay: Furfural tolerance in tube cultures; type: cell-based; details: Escherichia coli, strain XW055, AM1 medium, 50 g/L xylose, 48 h, read-out: minimal inhibitory concentration of furfural
Experimental: as §1

[5] = test system: XW120; assay: Furfural tolerance in tube cultures; type: cell-based; details: Escherichia coli, 48 h, read-out: minimal inhibitory concentration of furfural
Experimental: as §1

Q: How did the furfural tolerance [1] turn out when O=Cc1ccco1 [furfural] was run?
A: 17.5 mM

Q: What about the delay of growth [2] of the same compound?
A: 24 h

Q: And the “extension of time required to complete fermentation” value [2]?
A: 6 h

Q: What about the growth and fermentation [3] of the same compound?
A: completely blocked

Q: And the MIC [4]?
A: 7.5 mM (≈ 721 µg/mL)

Q: What about the MIC [5] of the same compound?
A: 15 mM (≈ 1440 µg/mL)
